Patent US20010014732A1, “Biocidal proteins” (ZENECA Limited, priority 1991, published 2001)
Where “and” joins values, the source holds several entries; their conditions need not be identical. Equal values may be shown once.

Legend:
[1] = system: Cercospora beticola (strain E897); experiment: Anti-fungal activity against foliar disease: in vivo test on sugarbeet plants; conditions: foliar spray one day prior to inoculation
[2] = system: F culmorum and T hamatum; format: cell-based, Fusarium culmorum, Trichoderma hamatum
Procedure: Antifungal activity was measured by microspectrophotometry as previously described (Broekaert, 1990, FEMS Microbiol Lett, 69:55-60). Routinely, tests were performed with 20 μl of a (filter-sterilized) test solution and 80 μl of a suspension of fungal spores (2×10^4 spores/ml) in half strength potato dextrose broth (1/2 PDB). Some tests were performed using a suspension of mycelium fragments in a synthetic growth medium. […] Control microcultures contained 20 μl of sterile distilled water and 80 μl of the fungal suspension.
Unless otherwise stated the test organism was Fusarium culmorum (strain IMI 180420) and incubation was done at 25° C. for 48 hours. Percent growth inhibition is defined as 100 times the ratio of the corrected absorbance of the control microculture minus the corrected absorbance of the test microculture over the corrected absorbance at 595 nm of the control microculture. The corrected absorbance values equal the absorbance at 595 nm of the culture measured after 48 hours minus the absorbance at 595 nm measured after 30 min.
The effect of ions on the antifungal activity of the Rs-AFPs and Rs-nsLTP was examined in more detail. […] The reference medium was the synthetic growth medium described in Example 1 which contains a total of 2.5 mM monovalent cations and 0.1 mM divalent cations. […]

[3] = system: plant pathogenic fungi; format: cell-based
[4] = system: Trichoderma hamatum MUCL 29736; format: cell-based
[5] = system: Septoria nodorum MUCL 30111; format: cell-based
[6] = system: Agrobacterium tumefaciens C58, Alcaligenes eutrophus, Azospirillum brasilense Sp7, Bacillus megaterium ATCC 13632, Erwinia carotovora strain 3912, Escherichia …; format: cell-based
[7] = system: Rhizoctonia solani CBS 207-84; format: cell-based
[8] = system: Cercospora beticola strain K897; format: cell-based
[9] = system: Fusarium culmorum IMI 180420; format: cell-based
[10] = system: Bacillus megaterium ATCC 13632; format: cell-based
[11] = system: Fusarium oxysporum f.sp. pisi IMI 236441; format: cell-based
[12] = system: Venturia inaegualis MUCL 15927; format: cell-based
[13] = system: Sclerotinia sclerotianum MUCL 30163; format: cell-based

## CCCCC(O)(Cn1cncn1)c1ccc(Cl)cc1Cl (stereo not shown) [hexaconazole, reference compound]
[1]
  concentration giving 50% control of the disease: approximately 7 μM

## Rs-AFP2: antifungal protein from Raphanus sativus (radish) seeds, oligomeric, identical 5 kDa subunits, highly basic (QKLCQRPSGTWSGVCGNNNACKNQCIRLEKARHGSCNYVFPAHKCICYFPC; UniProt P30230 30-80, looked up)
[2]; CaCl2 at 5 mM
  effect of Ca2+ on antifungal activity: varied from a slight increase in IC50 for F culmorum to complete inactivation for T hamatum
[2]; KCl at up to 50 mM
  effect of K+ on antifungal activity: did not affect the antifungal activity
[3]
  fungi inhibited by more than 50% at concentrations below 100 μg/ml: 11 out of 18
[4]
  IC50: 2 µg/mL
[5]
  IC50: 15 μg/m1 and 20 μg/m1
[6]
  effect on the other bacteria: no effect
[7]
  IC50: >100 μg/m1
[1]
  concentration giving 50% control of the disease: approximately 15 μM
[8]
  IC50: 2 μg/m1 and 3 μg/m1
[9]
  IC50: 2 µg/mL and 5 µg/mL
  antifungal activity of the reversed-phase HPLC peak in medium A and medium B: active in both medium A and medium B
[10]
  concentration causing 50% inhibition of growth: 200 µg/mL
[11]
  IC50: 2 μg/m1
[12]
  IC50: 25 μg/m1 and >50 μg/m1
[13]
  IC50: >100 μg/m1
